Columns and labels:
A549 = experiment: Concentration required to inhibit growth of human tumor A549 (NSCL) cell line.; format: functional, cell-based
A121 = experiment: Concentration required to inhibit growth of human tumor A121 (ovarian) cell line.; format: functional, cell-based
HT-29 = experiment: Concentration required to inhibit growth of human tumor HT-29 (colon) cell line.; format: functional, cell-based
MCF7 [1] = experiment: Concentration required to inhibit growth of human tumor MCF-7 (breast) cell line.; format: functional, cell-based
MCF7 [2] = experiment: Concentration required to inhibit growth of human tumor […] (breast) cell line.; format: functional, cell-based
Mus musculus [3] = experiment: Log cell kill = T-C(days)/3.32xTd (Tumor doubling time in days, 1.4 in this assay )on day 7 at 7.7 mg/kg/day in B16 melanoma implanted sc in B6D2F1 mice; format: ADME, organism-based; design: route subcutaneous; conditions: in vivo
Mus musculus [4] = experiment: Log cell kill = T-C(days)/3.32xTd (Tumor doubling time in days, 1.4 in this assay )on day 9 at 4.8 mg/kg/day in B16 melanoma implanted sc in B6D2F1 mice; format: ADME, organism-based; design: route subcutaneous; conditions: in vivo
Mus musculus [5] = experiment: Tumor growth inhibition of B16 melanoma implanted sc in B6D2F1 mice when 0.4 mL/mouse administered i.v. on day 7 at 7.7 mg/kg/day; format: functional; conditions: route intravenous
Mus musculus [6] = experiment: Tumor growth inhibition of B16 melanoma implanted sc in B6D2F1 mice when 0.4 mL/mouse administered i.v. on day 9 at 4.8 mg/kg/day; format: functional; conditions: route intravenous
Mus musculus [7] = experiment: Tumor growth delay of B16 melanoma implanted sc in B6D2F1 mice when 0.4 mL/mouse administered i.v. on day 7 at 7.7 mg/kg/day; format: functional; conditions: route intravenous
Mus musculus [8] = experiment: Tumor growth delay of B16 melanoma implanted sc in B6D2F1 mice when 0.4 mL/mouse administered i.v. on day 9 at 4.8 mg/kg/day; format: functional; conditions: route intravenous
Mus musculus [9] = experiment: Tumor growth delay of B16 melanoma implanted sc in B6D2F1 mice when 0.4 mL/mouse administered i.v. on day 5 at 12.4 mg/kg/day; format: functional; conditions: route intravenous
Mus musculus [10] = experiment: Tumor growth inhibition of B16 melanoma implanted sc in B6D2F1 mice when 0.4 mL/mouse administered i.v. on day 5 at 12.4 mg/kg/day; format: functional; conditions: route intravenous
Mus musculus [11] = experiment: Log cell kill = T-C(days)/3.32xTd (Tumor doubling time in days, 1.4 in this assay ) on day 5 at 12.4 mg/kg/day in B16 melanoma implanted sc in B6D2F1 mice; format: ADME, organism-based; design: route subcutaneous; conditions: in vivo
A2780 [12] = experiment: Cytotoxicity against A2780-C25, oxaliplatin-resistant Ovarian carcinoma cell line; format: functional, cell-based, Homo sapiens
A2780 [13] = experiment: Cytotoxicity against A2780-WT, human ovarian carcinoma cell line; format: functional, cell-based
A2780 [14] = experiment: Cytotoxicity against A2780-CP3, cisplatin-resistant Ovarian carcinoma cell line; format: functional, cell-based, Homo sapiens
A2780 [15] = experiment: Cytotoxicity against A2780-DX5, Doxorubicin-resistant Ovarian carcinoma cell line; format: functional, cell-based, Homo sapiens
Mus musculus [16] = experiment: Log cell kill = T-C(days)/3.32xTd (Tumor doubling time in days, 1.4 in this assay )on day 7 at 12.4 mg/kg/day in B16 melanoma implanted sc in B6D2F1 mice; format: ADME, organism-based; design: route subcutaneous; conditions: in vivo
Mus musculus [17] = experiment: Log cell kill = T-C(days)/3.32xTd (Tumor doubling time in days, 1.4 in this assay )on day 9 at 7.7 mg/kg/day in B16 melanoma implanted sc in B6D2F1 mice; format: ADME, organism-based; design: route subcutaneous; conditions: in vivo
Mus musculus [18] = experiment: Log cell kill = T-C(days)/3.32xTd (Tumor doubling time in days, 1.4 in this assay ) on day 5 at 20 mg/kg/day in B16 melanoma implanted sc in B6D2F1 mice; format: ADME, organism-based; design: route subcutaneous; conditions: in vivo
Mus musculus [19] = experiment: Tumor growth inhibition of B16 melanoma implanted sc in B6D2F1 mice when 0.4 mL/mouse administered i.v. on day 9 at 7.7 mg/kg/day; format: functional; conditions: route intravenous
Mus musculus [20] = experiment: Tumor growth delay of B16 melanoma implanted sc in B6D2F1 mice when 0.4 mL/mouse administered i.v. on day 9 at 7.7 mg/kg/day; format: functional; conditions: route intravenous
Mus musculus [21] = experiment: Tumor growth delay of B16 melanoma implanted sc in B6D2F1 mice when 0.4 mL/mouse administered i.v. on day 7 at 12.4 mg/kg/day; format: functional; conditions: route intravenous
Mus musculus [22] = experiment: Tumor growth inhibition of B16 melanoma implanted sc in B6D2F1 mice when 0.4 mL/mouse administered i.v. on day 5 at 20 mg/kg/day; format: functional; conditions: route intravenous
Mus musculus [23] = experiment: Tumor growth inhibition of B16 melanoma implanted sc in B6D2F1 mice when 0.4 mL/mouse administered i.v. on day 7 at 12.4 mg/kg/day; format: functional; conditions: route intravenous

Compound | IC50 (A549) | IC50 (A121) | IC50 (HT-29) | IC50 (MCF7 [1]) | IC50 (MCF7 [2]) | IC50 (A2780 [12]; Homo sapiens, A2780) | IC50 (A2780 [13]; Homo sapiens, A2780) | IC50 (A2780 [14]; Homo sapiens, A2780) | IC50 (A2780 [15]; Homo sapiens, A2780) | further results
CCC(=O)O[C@H]1C(=O)[C@@]2(C)[C@H]([C@H](OC(=O)c3ccccc3)[C@]3(O)C[C@H](OC(=O)[C@H](O)[C@H](C=C(C)C)NC(=O)OC(C)(C)C)C(C)=C1C3(C)C)[C@]1(OC(C)=O)CO[C@@H]1C[C@@H]2O | 0.29 nM | 0.12 nM | 0.31 nM | 0.18 nM | 2.2 nM |  |  |  |  | Log 10 cell kill (Mus musculus [3]): 2; Log 10 cell kill (Mus musculus [4]): 0.6; T/C (Mus musculus [5]): 0%; T/C (Mus musculus [6]): 34%; T-C (Mus musculus [7]): 9.3 days; T-C (Mus musculus [8]): 3 days; T-C (Mus musculus [9]): 10.9 days; T/C (Mus musculus [10]): 0%; Log 10 cell kill (Mus musculus [11]): 2.3
CC(=O)O[C@H]1C(=O)[C@@]2(C)[C@H]([C@H](OC(=O)c3ccccc3)[C@]3(O)C[C@H](OC(=O)[C@H](O)[C@H](C=C(C)C)NC(=O)OC(C)(C)C)C(C)=C1C3(C)C)[C@]1(OC(C)=O)CO[C@@H]1C[C@@H]2O | 0.27 nM | 0.46 nM | 0.63 nM | 0.55 nM | 12 nM | 0.3 nM | 0.4 nM | 0.36 nM | 5.7 nM | 
CC(=O)O[C@@]12CO[C@@H]1C[C@H](O)[C@@]1(C)C(=O)[C@H](O)C3=C(C)[C@@H](OC(=O)[C@H](O)[C@@H](NC(=O)OC(C)(C)C)c4ccccc4)C[C@@](O)([C@@H](OC(=O)c4ccccc4)[C@H]21)C3(C)C.O.O.O [DOCETAXEL] |  |  |  |  |  | 1 nM | 1.2 nM | 1.4 nM | 122 nM | Log 10 cell kill (Mus musculus [16]): 1.5; Log 10 cell kill (Mus musculus [17]): 0.9; Log 10 cell kill (Mus musculus [18]): 3.3; T/C (Mus musculus [19]): 8%; T-C (Mus musculus [20]): 4.3 days; T-C (Mus musculus [21]): 7.1 days; T/C (Mus musculus [22]): 0%; T/C (Mus musculus [23]): 7%
COc1cccc2c1C(=O)c1c(O)c3c(c(O)c1C2=O)C[C@@](O)(C(=O)CO)C[C@@H]3O[C@H]1C[C@H](N)[C@H](O)[C@H](C)O1 [DOXORUBICIN] |  |  |  |  |  | 63 nM | 5 nM | 56 nM | 357 nM | 
CISPLATIN |  |  |  |  |  |  |  |  |  | IC50 (A2780 [12]; a2780): 1600 nM; IC50 (A2780 [13]; a2780): 450 nM; IC50 (A2780 [14]; a2780): 9000 nM; IC50 (A2780 [15]; a2780): 280 nM

Source: ChEMBL document CHEMBL1129422, “Syntheses and structure-activity relationships of the second-generation antitumor taxoids: exceptional activity against drug-resistant cancer cells” (J Med Chem, 1996)
